# Assay results published in the Kinase Knowledgebase extract (Sharma et al. 2016).
# Target: CDK2 (human) (UniProt P24941)
# Experiment: Enzyme Assay
# Conditions: not given
row,Ki,Compound
1,360 nM,Nc1nc(NC2CN(C(=O)c3ccc([N+](=O)[O-])cc3)C2)sc1C(=O)c1c(F)cccc1F

# Same assay, conditions: concentration not given here
row,inhibition,Compound
1,75%,Nc1nc(NC2CCN(C(=O)CSc3ccccc3F)CC2)sc1C(=O)c1c(F)cccc1F
2,5%,Nc1nc(NC2CCN(C(=O)CCC(=O)c3ccccc3)CC2)sc1C(=O)c1c(F)cccc1F
3,49%,CCC(C)C(C(=O)N1CCC(Nc2nc(N)c(C(=O)c3c(F)cccc3F)s2)CC1)c1ccccc1 (centres undefined)
4,10%,CN(C)[C@@H](Cc1ccccc1)C(=O)N1CCC(Nc2nc(N)c(C(=O)c3c(F)cccc3F)s2)CC1
5,48%,Nc1nc(NC2CCN(C(=O)Cc3ccccc3O)CC2)sc1C(=O)c1c(F)cccc1F
6,92%,COc1ccccc1/C=C/C(=O)N1CCC(Nc2nc(N)c(C(=O)c3c(F)cccc3F)s2)CC1
7,36%,Cc1c(F)cccc1C(=O)N1CCC(Nc2nc(N)c(C(=O)c3c(F)cccc3F)s2)CC1
8,-7%,CN(C(=O)N1CCC(Nc2nc(N)c(C(=O)c3c(F)cccc3F)s2)CC1)c1ccccc1
9,61%,Nc1nc(NC2CCN(C(=O)c3cnc4ccccc4n3)CC2)sc1C(=O)c1c(F)cccc1F
10,52%,Cc1ncccc1C(=O)N1CCC(Nc2nc(N)c(C(=O)c3c(F)cccc3F)s2)CC1
11,45%,Nc1nc(NC2CCN(C(=O)CCC(F)(F)F)CC2)sc1C(=O)c1c(F)cccc1F
12,22%,N#Cc1ccc(NCC(=O)N2CCC(Nc3nc(N)c(C(=O)c4c(F)cccc4F)s3)CC2)cc1
13,49%,CC(=O)CCCCC(=O)N1CCC(Nc2nc(N)c(C(=O)c3c(F)cccc3F)s2)CC1
14,61%,Nc1nc(NC2CCN(C(=O)CCOc3ccc(F)cc3)CC2)sc1C(=O)c1c(F)cccc1F
15,51%,Nc1nc(NC2CCN(C(=O)Cc3cccc4ccccc34)CC2)sc1C(=O)c1c(F)cccc1F
16,-6%,CCOC(=O)CCCC(=O)N1CCC(Nc2nc(N)c(C(=O)c3c(F)cccc3F)s2)CC1
17,9%,Nc1nc(NC2CCN(C(=O)c3ccc4ccccc4n3)CC2)sc1C(=O)c1c(F)cccc1F
18,50%,CO[C@H](C(=O)N1CCC(Nc2nc(N)c(C(=O)c3c(F)cccc3F)s2)CC1)c1ccccc1

row,inhibition,Compound
1,23%,Nc1nc(NC2CCN(C(=O)CCCS)CC2)sc1C(=O)c1c(F)cccc1F
2,75%,Cc1cc(C)cc(CC(=O)N2CCC(Nc3nc(N)c(C(=O)c4c(F)cccc4F)s3)CC2)c1
3,71%,CC(C)CCCC(=O)N1CCC(Nc2nc(N)c(C(=O)c3c(F)cccc3F)s2)CC1
4,48%,CCCCC(=O)N1CCC(Nc2nc(N)c(C(=O)c3c(F)cccc3F)s2)CC1
5,12%,Nc1nc(NC2CCN(C(=O)CCCCCc3ccccc3)CC2)sc1C(=O)c1c(F)cccc1F
6,17%,CC(=O)CC(C(=O)N1CCC(Nc2nc(N)c(C(=O)c3c(F)cccc3F)s2)CC1)c1ccccc1 (centres undefined)
7,41%,CC(=O)O[C@H](C(=O)N1CCC(Nc2nc(N)c(C(=O)c3c(F)cccc3F)s2)CC1)c1ccccc1
8,56%,Nc1nc(NC2CCN(C(=O)CCc3c[nH]c4ccccc34)CC2)sc1C(=O)c1c(F)cccc1F
9,58%,Nc1nc(NC2CCN(C(=O)Cc3ccc(Cl)cc3)CC2)sc1C(=O)c1c(F)cccc1F
10,6%,Nc1nc(NC2CCN(C(=O)C3CCc4ccccc4O3)CC2)sc1C(=O)c1c(F)cccc1F (centres undefined)
11,49%,Nc1nc(NC2CCN(C(=O)CCc3ccc4c(c3)OCO4)CC2)sc1C(=O)c1c(F)cccc1F
12,76%,C=CCc1ccccc1OCC(=O)N1CCC(Nc2nc(N)c(C(=O)c3c(F)cccc3F)s2)CC1
13,39%,Nc1nc(NC2CCN(C(=O)CCO)CC2)sc1C(=O)c1c(F)cccc1F
14,70%,Cc1cccc(OCC(=O)N2CCC(Nc3nc(N)c(C(=O)c4c(F)cccc4F)s3)CC2)c1
15,72%,C[C@@H](O)CC(=O)N1CCC(Nc2nc(N)c(C(=O)c3c(F)cccc3F)s2)CC1
16,58%,Nc1nc(NC2CCN(C(=O)C3COc4ccccc4O3)CC2)sc1C(=O)c1c(F)cccc1F (centres undefined)
17,57%,Nc1nc(NC2CCN(C(=O)C(CO)c3ccccc3)CC2)sc1C(=O)c1c(F)cccc1F (centres undefined)
18,16%,C=CCCCCC(=O)N1CCC(Nc2nc(N)c(C(=O)c3c(F)cccc3F)s2)CC1

# Continued, compound first:
row,Compound,inhibition
1,CC(=O)N(C)CC(=O)N1CCC(Nc2nc(N)c(C(=O)c3c(F)cccc3F)s2)CC1,40%
2,CN(C)c1ccc(NC(=O)N2CCC(Nc3nc(N)c(C(=O)c4c(F)cccc4F)s3)CC2)cc1,23%
3,CC(C)[C@@H](O)C(=O)N1CCC(Nc2nc(N)c(C(=O)c3c(F)cccc3F)s2)CC1,34%
4,CCOc1cccc(/C=C/C(=O)N2CCC(Nc3nc(N)c(C(=O)c4c(F)cccc4F)s3)CC2)c1,50%
5,CCC(O)C(=O)N1CCC(Nc2nc(N)c(C(=O)c3c(F)cccc3F)s2)CC1 (centres undefined),48%
6,CN1CC(C(=O)N2CCC(Nc3nc(N)c(C(=O)c4c(F)cccc4F)s3)CC2)CC1=O (centres undefined),41%
7,Nc1nc(NC2CCN(C(=O)c3ccc(F)c(Cl)c3)CC2)sc1C(=O)c1c(F)cccc1F,48%
8,CCCCC[C@H]1CC[C@H](C(=O)N2CCC(Nc3nc(N)c(C(=O)c4c(F)cccc4F)s3)CC2)CC1,14%
9,NC(=S)Nc1ccc(C(=O)N2CCC(Nc3nc(N)c(C(=O)c4c(F)cccc4F)s3)CC2)cc1,73%
10,CC1CCCC(C(=O)N2CCC(Nc3nc(N)c(C(=O)c4c(F)cccc4F)s3)CC2)C1 (centres undefined),74%
11,Nc1nc(NC2CCN(C(=O)/C=C/c3cc(F)ccc3F)CC2)sc1C(=O)c1c(F)cccc1F,81%
12,CCCCOc1ccc(C(C)(C)CC)cc1S(=O)(=O)N1CCC(Nc2nc(N)c(C(=O)c3c(F)cccc3F)s2)CC1,-30%
13,COc1ccc(C(O)C(=O)N2CCC(Nc3nc(N)c(C(=O)c4c(F)cccc4F)s3)CC2)cc1 (centres undefined),58%
14,CS(=O)(=O)CS(=O)(=O)N1CCC(Nc2nc(N)c(C(=O)c3c(F)cccc3F)s2)CC1,-23%
15,Nc1nc(NC2CCN(C(=O)c3cnccn3)CC2)sc1C(=O)c1c(F)cccc1F,58%
16,Nc1cc(C(=O)N2CCC(Nc3nc(N)c(C(=O)c4c(F)cccc4F)s3)CC2)ccc1Cl,50%
17,C=CC(C)C(=O)N1CCC(Nc2nc(N)c(C(=O)c3c(F)cccc3F)s2)CC1 (centres undefined),37%
18,Cc1ccc(C)c(OCC(=O)N2CCC(Nc3nc(N)c(C(=O)c4c(F)cccc4F)s3)CC2)c1,26%
19,CCC[C@H]1CC[C@H](C(=O)N2CCC(Nc3nc(N)c(C(=O)c4c(F)cccc4F)s3)CC2)CC1,42%
20,Nc1nc(NC2CCN(S(=O)(=O)c3ccc(O)c(C(=O)O)c3)CC2)sc1C(=O)c1c(F)cccc1F,-16%
21,Nc1nc(NC2CCN(C(=O)c3ccc4[nH]cnc4c3)CC2)sc1C(=O)c1c(F)cccc1F,72%
22,Nc1nc(NC2CCN(C(=O)C(O)c3cc(F)cc(F)c3)CC2)sc1C(=O)c1c(F)cccc1F (centres undefined),52%
23,CC(C)(C)C1CCC(C(=O)N2CCC(Nc3nc(N)c(C(=O)c4c(F)cccc4F)s3)CC2)CC1 (centres undefined),34%
24,Nc1nc(NC2CCN(S(=O)(=O)c3cccc([N+](=O)[O-])c3)CC2)sc1C(=O)c1c(F)cccc1F,-23%
25,Nc1nc(NC2CCN(C(=O)/C=C/c3ccc(O)cc3)CC2)sc1C(=O)c1c(F)cccc1F,66%
26,Cc1cc(C(=O)N2CCC(Nc3nc(N)c(C(=O)c4c(F)cccc4F)s3)CC2)nn1C,40%
27,Nc1nc(NC2CCN(C(=O)c3ccc4[nH]nnc4c3)CC2)sc1C(=O)c1c(F)cccc1F,49%
